How the values were obtained:
WHIM6 and WHIM25 tumors = experiment: Epifluorescence imaging (IVIS) of Cy5p53Tet uptake in bilateral PDX WHIM6/WHIM25 tumors; assay type: in vivo, NSG mice; conditions: 10 nmol tail vein
Procedure: In vivo optical imaging of Cy5p53Tet peptide uptake in bilateral PDX WHIM6/WHIM25 xenograft models. 2 million WHIM6 cells and WHIM25 cells were injected subcutaneously on the left and right shoulders of each mouse. 10 nmol Cy5p53Tet peptide was intravenously injected to each mouse when tumor size reached to 100-200 mm^3. At 1 hr, 2 hr and 3 hr post Cy5p53Tet peptide injection, the tumors were removed and the epifluorescence images were taken using an IVIS Spectrum. […] Cy5p53Tet peptide epifluorescence intensity quantification in WHIM6 and WHIM25 tumors was analyzed.
First, WHIM6/WHIM25 bilateral PDX tumor-bearing NSG mice were tail vein injected with 10 nmol of Cy5p53Tet peptide to study its delivery efficacy (FIG. 5A). Then, the WHIM6 and WHIM25 tumors were removed at 1, 2, and 3 hr post-injection. Uptake of the Cy5p53Tet peptide in WHIM6 and WHIM25 tumors was assessed on an in vivo epifluorecent imaging system (IVIS). […] The Cy5p53Tet peptide signal was investigated in PDX tumor tissue by extracting proteins from the WHIM6 and WHIM25 tumors post-injection with the Cy5p53Tet peptide at 1 hr, 2 hr, and 3 hr, and the Cy5p53Tet peptide effects were characterized in PDX models (FIG. 5B). Samples were run on 12% polyacrylamide gel and the Cy5p53Tet peptide accumulated in tumors was scanned at Cy5 channel and quantified. […]

[1] = tested on: p53, p73 and PARP1 protein levels in WHIM6 and WHIM25 tumors; experiment: Western blot of p53, p73 and PARP1 protein levels in PDX tumors after Cy5p53Tet injection; assay type: in vivo, NSG mice
Procedure: 25 μg of proteins were run on 12% polyacrylamide gel and the Cy5p53Tet peptide accumulated in tumors was scanned at Cy5 channel and quantified. The intensity of Cy5p53Tet peptide was analyzed by ImageJ. p53 and MDM2 protein levels from the WHIM6 and WHIM25 tumors post-injection with Cy5p53Tet peptide at 1 hr, 2 hr and 3 hr were determined by Western blot analysis. 25 ug of proteins were load on 12% SDS-PAGE gel.
FIG. 5C is a Western blot analysis showing p53, p63 and p73 protein levels from the WHIM6 and WHIM25 tumors 2 hr post injection with Cy5p53Tet peptide. 75 ug of proteins were load on 10% SDS-PAGE gel (left panel). p53, PARP1 and p73 protein levels from the WHIM6 and WHIM25 tumors 1 hr, 2 hr and 3 hr post injection with Cy5p53Tet peptide were determined by Western blot analysis (right panel). 50 ug of proteins were load on 10% SDS-PAGE gel.
PDX models have been used in translational cancer research to validate the mechanisms that link specific biomarkers to treatment efficacy that could make clinical decisions. The coexpression of mtp53 and PARP1 proteins can be biomarkers for companion diagnostics using PDX models with mtp53. […] Uptake of the Cy5p53Tet peptide in WHIM6 and WHIM25 tumors was assessed on an in vivo epifluorecent imaging system (IVIS). The Cy5p53Tet peptide was detected in both TNBC PDX tumors; however, there was a higher Cy5 fluorescence signal in the tumor site of WHIM6 compared to tumor site of WHIM25 (FIG. 5A, represent picture of 2 hr post injection). […] Samples were run on 12% polyacrylamide gel and the Cy5p53Tet peptide accumulated in tumors was scanned at Cy5 channel and quantified. […]
Given the high degree of structural similarity of the tetramerization domain shared by the p53 family members, p63, and p73, the Cy5p53Tet peptide is believed to bind to TD of p63 or p73 and cause the Cy5p53Tet peptide accumulation in WHIM6 tumors. […] A higher level of p63 was detected in WHIM6 than in WHIM25 tumors (FIG. 5C left panel, compare lane 1 to 2). p73 protein levels were very low in both WHIM6 and WHIM25 tumors. […]

H-CysCy5-RKKRRQRRGEYFTLQIRGRERFEMFRELNEALELK-OH (N-terminal Cy5; Synthetic peptide based on p53 protein) [Cy5p53Tet]
Cy5 fluorescence signal in the tumor site of WHIM6 compared to WHIM25 (WHIM6 and WHIM25 tumors): higher | mtp53 and wtp53 protein levels upon treatment ([1]; WHIM25 and WHIM6 tumors): not affected | PARP1 protein levels in response to the peptide ([1]; mtp53 WHIM25 tumor samples): deceased | p73 protein levels in response to the peptide ([1]; mtp53 WHIM25 tumor samples): increased
